Among the test systems are HCT-116; T47D; SK-MEL-28; UACC-257; MDA-MB-435; SF-539; ACHN; BT-549; HT-29; SNB-75; SK-MEL-5; U-251; NCI-H522; NCI/ADR-RES; HCT-15; IGROV-1; Malme-3M; RPMI-8226; RXF 393; HCC 2998.
Test in all cases: NCI anticancer screen, dose series, 48 h

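The compound was tested at five concentrations on cells cultured in 96-well plates, with a 48-hour exposure period. Here, GI50 denotes the concentration required for 50% inhibition of growth.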 Active and inactive are the calls of the source. No stated cut-off is given here; in the data, active = GI50 up to about 1.1 µM and inactive = higher.

In the case of `Cc1nc2sc3cccc(Cl)c3n2c(=O)c1/N=N/c1ccc(Cl)cc1`, the GI50 with HCT-116 was 88.1 µM (inactive); in the test on T47D it was 45.3 µM (inactive); in the test with SK-MEL-28 it was > 100 µM (inactive); in the test on UACC-257, 98.6 µM (inactive); with MDA-MB-435, > 100 µM (inactive); with SF-539 it was > 100 µM (inactive). Further, the GI50 in the test on ACHN is 59.7 µM (inactive); in the test with BT-549, 93.8 µM (inactive); in the test on HT-29, 67.1 µM (inactive); with SNB-75, 85.3 µM (inactive); in the test with SK-MEL-5, 68.2 µM (inactive); in the test on U-251, > 100 µM (inactive). The GI50 in the test on NCI-H522 was 45.7 µM (inactive); with NCI/ADR-RES, > 100 µM (inactive); with HCT-15 it was over 100 µM; in the test with IGROV-1, 63.8 µM (inactive); in the test with Malme-3M, 70.6 µM (inactive); in the test on RPMI-8226, > 100 µM (inactive). Further, in the test on RXF 393, the GI50 was > 100 µM (inactive).

Take `N=C(/C=C/c1ccc(-c2cn3cc(/C=C/C(=N)N4CCCC4)ccc3n2)cc1)N1CCCC1`: the GI50 with HCT-116 is 90.8 µM (inactive); in the test with T47D it was > 100 µM (inactive); with SK-MEL-28 it was > 100 µM (inactive); in the test on HCC 2998, > 100 µM (inactive); in the test with UACC-257 it was 78.7 µM (inactive); in the test on MDA-MB-435, > 100 µM (inactive). The GI50 in the test with SF-539 was 47.3 µM (inactive); in the test with ACHN, 68.9 µM (inactive); with BT-549, > 100 µM (inactive); in the test with SNB-75, > 100 µM (inactive); in the test with SK-MEL-5 it was > 100 µM (inactive); in the test on U-251, 50.2 µM (inactive). The GI50 in the test on NCI-H522 was 31 µM (inactive); in the test on NCI/ADR-RES, > 100 µM (inactive); with HCT-15, over 100 µM; in the test with IGROV-1 it was > 100 µM (inactive); in the test on Malme-3M it was 27 µM (inactive); with RPMI-8226 it was > 100 µM (inactive). In the test with RXF 393, the GI50 was 50.6 µM (inactive).

Take `Nc1ccc(S(=O)(=O)C23CC4CC(CC(C4)C2)C3)cc1`: the GI50 in the test on HCT-116 was > 100 µM (inactive); in the test with T47D, 34.1 µM (inactive); with SK-MEL-28, > 100 µM (inactive); in the test on HCC 2998, > 100 µM (inactive); with UACC-257, > 100 µM (inactive); in the test with MDA-MB-435, 72.9 µM (inactive). Further, the GI50 is > 100 µM (inactive) in the test on SF-539; > 100 µM (inactive) in the test with ACHN; > 100 µM (inactive) in the test on BT-549; > 100 µM (inactive) in the test on HT-29; 4.49 µM (inactive) in the test with SK-MEL-5; > 100 µM (inactive) with U-251. The GI50 in the test with NCI-H522 is > 100 µM (inactive); with NCI/ADR-RES, > 100 µM (inactive); with HCT-15 it was over 100 µM; in the test on IGROV-1, > 100 µM (inactive); in the test with Malme-3M, > 100 µM (inactive); with RPMI-8226, 55.3 µM (inactive). Further, the GI50 with RXF 393 is 30.1 µM (inactive).

For `CC(=O)C(C(=N)C#N)C(=O)Nc1ccccc1` (stereo not given), the GI50 with HCT-116, in the test with T47D, in the test on SK-MEL-28, in the test on UACC-257, with MDA-MB-435 and with SF-539 was > 100 µM (inactive) each time. Further, the GI50 with ACHN, in the test on BT-549, in the test on HT-29, with SNB-75, in the test with SK-MEL-5 and in the test on U-251 was > 100 µM (inactive) each time. Moreover, the GI50 with NCI-H522 is > 100 µM (inactive); in the test on NCI/ADR-RES, > 100 µM (inactive); in the test with HCT-15, over 100 µM; in the test with IGROV-1, > 100 µM (inactive); in the test with Malme-3M, > 100 µM (inactive); with RPMI-8226, > 100 µM (inactive). Moreover, the GI50 in the test on RXF 393 was > 100 µM (inactive).

On to `O=C(CNC(=O)c1ccccc1)Oc1c(Cl)c(Cl)c(Cl)c(Cl)c1Cl`, for which the GI50 in the test with HCT-116 was 56.4 µM (inactive); in the test with T47D it was 42.6 µM (inactive); in the test with SK-MEL-28 it was 39 µM (inactive); in the test on HCC 2998, 27.7 µM (inactive); with UACC-257, 19.6 µM (inactive); with MDA-MB-435 it was 36.1 µM (inactive). Moreover, the GI50 is 28.2 µM (inactive) with SF-539; 25.2 µM (inactive) with ACHN; 20.5 µM (inactive) with BT-549; 30.5 µM (inactive) with HT-29; 45.5 µM (inactive) in the test on SNB-75; 26.7 µM (inactive) in the test with U-251. In addition, the GI50 is 29.6 µM (inactive) with NCI-H522; 31 µM (inactive) in the test on NCI/ADR-RES; 30.6 µM in the test with HCT-15; 27.8 µM (inactive) with IGROV-1; 28.8 µM (inactive) in the test on Malme-3M; 38.7 µM (inactive) in the test with RPMI-8226. Moreover, the GI50 with RXF 393 is 39.4 µM (inactive).

Regarding `CC(=O)OC(OC(C)=O)c1ccc2ccc3cccc4ccc1c2c34`, the GI50 is 22.4 µM (inactive) in the test on HCT-116; 22.9 µM (inactive) in the test with T47D; 11.3 µM (inactive) in the test with HCC 2998; 17.1 µM (inactive) in the test with UACC-257; 18.9 µM (inactive) in the test on MDA-MB-435; 38.7 µM (inactive) in the test on SF-539. Also, the GI50 is 26.2 µM (inactive) in the test on ACHN; 25.1 µM (inactive) in the test on BT-549; 18 µM (inactive) in the test on HT-29; 15.7 µM (inactive) in the test with SNB-75; 18.2 µM (inactive) in the test on SK-MEL-5; 14.3 µM (inactive) in the test with U-251. The GI50 with NCI/ADR-RES is 31.3 µM (inactive); in the test with HCT-15, 33.7 µM; in the test on IGROV-1, 21.7 µM (inactive); in the test with Malme-3M it was 12.3 µM (inactive); with RPMI-8226, 16.3 µM (inactive); in the test on RXF 393, 11.3 µM (inactive).

Consider `CC1CN(c2cc3c(cc2F)c(=O)c(C(=O)O)cn3-c2ccc(F)cn2)CC(C)N1` (stereo not given), for which the GI50 in the test on HCT-116, with T47D, with SK-MEL-28, in the test with UACC-257, in the test on MDA-MB-435 and with SF-539 was > 100 µM (inactive) each time. The GI50 in the test on BT-549 is > 100 µM (inactive); in the test on HT-29, > 100 µM (inactive); with SNB-75, > 100 µM (inactive); in the test with U-251, > 100 µM (inactive); in the test with NCI-H522, 22.5 µM (inactive); in the test with NCI/ADR-RES, > 100 µM (inactive). For the same compound, the GI50 was over 100 µM with HCT-15; > 100 µM (inactive) in the test with IGROV-1; > 100 µM (inactive) in the test with Malme-3M; > 100 µM (inactive) in the test on RPMI-8226; > 100 µM (inactive) in the test on RXF 393.

Take `CC1=C(C(=O)NCCc2ccccc2)CC(C(=O)NCCc2ccccc2)=C(C)N1`: the GI50 in the test with HCT-116 was 74.5 µM (inactive); with T47D it was 64.6 µM (inactive); in the test with HCC 2998, > 100 µM (inactive); with UACC-257, > 100 µM (inactive); in the test on MDA-MB-435 it was > 100 µM (inactive); in the test on SF-539, > 100 µM (inactive). The GI50 in the test with ACHN is 55.3 µM (inactive); in the test with BT-549 it was > 100 µM (inactive); with HT-29, 61.1 µM (inactive); in the test on SNB-75 it was 14.3 µM (inactive); in the test with U-251 it was > 100 µM (inactive); in the test with NCI-H522, 47.4 µM (inactive). Besides, the GI50 in the test with NCI/ADR-RES is > 100 µM (inactive); in the test with HCT-15, over 100 µM; in the test with IGROV-1, 54.8 µM (inactive); with RPMI-8226, 45.7 µM (inactive); in the test with RXF 393 it was 35.8 µM (inactive).

For the compound `C#CC(O)Cc1ccc(OC)c2occc12` (stereo not given), the GI50 with HCT-116, in the test on T47D, in the test on HCC 2998, in the test on UACC-257, in the test with MDA-MB-435 and with SF-539 was > 100 µM (inactive) each time. Besides, the GI50 with ACHN is > 100 µM (inactive); in the test with BT-549 it was > 100 µM (inactive); with HT-29, > 100 µM (inactive); in the test on SNB-75, 52.1 µM (inactive); in the test on SK-MEL-5, > 100 µM (inactive); with U-251 it was > 100 µM (inactive). The GI50 in the test with NCI-H522 is > 100 µM (inactive); in the test on NCI/ADR-RES it was > 100 µM (inactive); in the test on HCT-15, over 100 µM; with IGROV-1 it was > 100 µM (inactive); in the test on Malme-3M, > 100 µM (inactive); in the test with RPMI-8226, > 100 µM (inactive). The GI50 in the test with RXF 393 is > 100 µM (inactive).

For `O=C1Nc2ccccc2/C1=C1/Nc2ccccc2/C1=N/OCCOCCO`, the GI50 in the test on HCT-116 was 0.582 µM (active); with T47D, 2.89 µM (inactive); in the test with SK-MEL-28, 5.05 µM (inactive); with HCC 2998 it was 2.76 µM (inactive); in the test with UACC-257, 17.5 µM (inactive); with MDA-MB-435, 3.15 µM (inactive). In addition, the GI50 in the test with SF-539 was 2.88 µM (inactive); in the test on ACHN, 0.738 µM (active); in the test on BT-549, 2.38 µM (inactive); in the test with HT-29 it was 1.45 µM (inactive); in the test on SNB-75 it was 2.35 µM (inactive); with SK-MEL-5, 1.57 µM (inactive). Moreover, the GI50 with U-251 was 3.29 µM (inactive); with NCI-H522 it was 2.47 µM (inactive); in the test on NCI/ADR-RES, 4.17 µM (inactive); with HCT-15, 0.664 µM; with IGROV-1, 0.0836 µM (active); in the test on Malme-3M, 1.43 µM (inactive). Also, the values for the GI50 in the test on RPMI-8226 and in the test on RXF 393 were 3.47 µM (inactive) and 1.03 µM (active), respectively.

With `O=C1/C(=C/c2ccc(Cl)cc2)Oc2ccccc21`, the GI50 in the test with HCT-116 is 59.4 µM (inactive); with T47D, 27.4 µM (inactive); in the test with SK-MEL-28, > 100 µM (inactive); in the test on HCC 2998, > 100 µM (inactive); in the test with UACC-257 it was 64.7 µM (inactive); in the test on MDA-MB-435 it was 79.3 µM (inactive). Besides, the GI50 in the test with SF-539 was 20.6 µM (inactive); with ACHN, 20.4 µM (inactive); in the test on BT-549, 25.6 µM (inactive); in the test on HT-29 it was > 100 µM (inactive); in the test with SNB-75 it was 32.7 µM (inactive); with SK-MEL-5, 20.4 µM (inactive). In addition, the GI50 in the test on U-251 was 36.3 µM (inactive); with NCI-H522, 11.7 µM (inactive); in the test on NCI/ADR-RES it was > 10 µM (inactive); in the test on HCT-15 it was 66.7 µM; in the test with IGROV-1 it was > 10 µM (inactive); with RPMI-8226 it was 58.2 µM (inactive). Moreover, the GI50 in the test on RXF 393 was 21.4 µM (inactive).
